The values below come from patent US20050037949A1, “Mannose binding lectin and uses thereof” (priority 2002, published 2005).

Test [1] has as its system MASPs in purified MBL-MASP complex. In words: Substrate cleavage assay: kinetic constants of MASP proteolytic activity on synthetic C4-based substrates. In kind it is biochemical. To be noted: proteolytic activity of MASPs in purified MBL-MASP complex on the synthetic substrate; sigmoidal kinetics. The method, then:
For quantitative measurements, typically the signal emitted by the label is measured from the beginning of the reaction and the results used to obtain an initial rate. Substrates consisting only of the residues N-terminal to the cleavage site of C4 show normal Michaelis-Menten kinetics for their cleavage by both C1s and the MBL-MASP complex. This means that the dependence of the initial velocity for the cleavage reaction on substrate concentration can be described by a rectangular hyperbola and the constants Km (Michaelis constant which equates to the affinity between enzyme and substrate) and Vmax (maximal velocity of the reaction) can be derived from a non-linear regression fit of the data. […]
The substrate (2Abz-[…]-Lys(Dnp)-NH2) includes the four amino acids before and after the C4 cleavage site and an aminobenzoic acid (Abz) fluorescent group attached to its N-terminal end. […] The change in fluorescence can then be measured and is proportional to the proteolytic activity of the enzyme.
The substrate and enzymes (C1s (10 μg/mL) or purified MBL material) are incubated for several minutes in a fluorescence plate reader set at 37° C. 100 μL of diluted substrate is then transferred into wells containing 100 μL diluted enzyme (C1s or purified MBL material) and the kinetics of fluorescence is measured as follows: excitation=320 nm; emission=420 nm. […]

The subject of test [2] is C4b deposition from MBL-deficient human serum on solid-phase mannan. In words: Functional complement (C4) deposition assay. In kind it is biochemical. As to conditions: for Complement activation capacity (in words): Example 4 titration, 1-100 μg/ml. As to the method: All quantitation assays were standardised using an international, primary standard pool serum (Statens Serum Institut, Copenhagen, Denmark), containing 3.3 μg MBL/ml serum. For the sandwich ELISA and the C4 deposition assay, a standard curve was made with 1:25, 1:50, 1:75, 1:100, 1:150 and 1:200 dilutions of this serum, tested in triplicate. Standard dilutions for the mannan binding ELISA were 1:25, 1:50, 1:100, 1:150, 1:200, 1:300 and 1:400. Diluents were as detailed below. An in-house secondary control was prepared from pooled normal donor plasma and run in triplicate on each test plate, the results plotted for each run. Results of any test runs, in which values obtained for the in-house control MBL were outside +/−2SD from the previously determined mean value, led to rejection of the whole run. Run to run standard curves were overlayed to ensure a constant slope and thus provide another sensitive means of quality control.
Microtitre plates (as above) were coated overnight at 4° C. with 1 μg/mL mannan (Sigma-Aldrich Pty Ltd, Castle Hill, Australia) in fresh 50 mM carbonate-bicarbonate buffer, pH 9.6. Normal donor plasmas were tested in triplicate, diluted to 1:25 in TBST with 15 mM CaCl2, pH 7.2 which was also the wash buffer. A 1:10 dilution was also tested and interpreted only to confirm low or near absent levels of C4 deposition in donors with low amounts of MBL. After 90 minutes at 22° C., wells were washed 5 times and MBL-deficient human serum (completely deficient in MBL, obtained with informed consent) diluted 1:20 in barbital buffer, […], 10 mM sodium barbitone and 5 mM CaCl2 was added to wells and incubated at 22° C. for 30 minutes to enable complement activation. Wells were washed 5 times and biotinylated rabbit anti-human C4 (Sigma-Aldrich Pty Ltd) biotinylated using Biotin Tag (Sigma-Aldrich Pty Ltd) which was added at 1:1500 in TBST. Following incubation at 22° C. for 90 minutes, wells were washed 5 times and 1:500 ExtrAvidin peroxidase (Sigma-Aldrich Pty Ltd) in TBST was added and incubated at 22° C. for 40 minutes. Colour development and reading was as for the quantitation assays.
1 μl of Statens Serum Institut (SSI) MBL Standard was arbitrarily assigned 1 unit of C4 deposition activity. The assay was standardised against the SSI standard. Between run CV for the assay at 1:25 was 9.4%.
The positive control for MASP-2 activity was MASP containing, affinity-purified MBL complex. All fractions obtained in Example 1 were considered MASP-depleted with MASP activity measured as slope/sec less than 2.3 (range 0.5-2.3). […] Both MASP-depleted fractions and the MBL-MASP complex were titrated to provide MBL protein concentrations at 1 to 100 μg/ml. Fractions were assayed in parallel in the mannan-binding and C4-deposition assays as described in this document. The result from the Mannan-binding assay was plotted against C4 activity for each fraction.
The fractions supplied in Example 3 were pooled according to total protein concentration. […] The two MASP-depleted MBL pools were again titrated in the range of 1-100 μg/ml in parallel with the MBL-MASP complex. All samples were assayed on both the Mannan-binding and C4-deposition assays in parallel. Actual MBL quantification (mannan-binding assay) results were graphed against corresponding C4 activation capability for the fraction.

Non-standard residues stand in square brackets, D forms with d. No end group written: not given here. *: point of attachment. Dnp = O=[N+]([O-])c1ccc(*)c([N+](=O)[O-])c1; 2Abz = Nc1ccccc1C(=O)O

In the case of “2Abz-GLQRALEI-Lys(Dnp)-NH2 ([2Abz]GLQRALEIK(Dnp)-NH2; N-terminus assumed; SMILES CC[C@H](C)[C@H](NC(=O)[C@H](CCC(=O)O)NC(=O)[C@H](CC(C)C)NC(=O)[C@H](C)NC(=O)[C@H](CCCNC(=N)N)NC(=O)[C@H](CCC(N)=O)NC(=O)[C@H](CC(C)C)NC(=O)CNC(=O)c1ccccc1N)C(=O)N[C@@H](CCCCNc1ccc([N+](=O)[O-])cc1[N+](=O)[O-])C(N)=O) [C4 (P4-P4′), quenched fluorescent substrate with the four amino acids before and after the C4 cleavage site]”, the “Affinity constant K0.5” value in test [1] was determined as 6.50 ± 0.32 µM.
Turning to “MASP Pool 8-9: pool of MASP-depleted MBL fractions 8 and 9, total protein 35 μg/ml”, the “Complement activation capacity (in words)” value in test [2] is “reached the high assay limit”. Besides, the C4 is recorded as 0.049 U/ul in test [2] (MBL 1.122 ug/mL, Table 3); 0.108 U/ul in test [2] (MBL 2.032 ug/mL, Table 3); 0.189 U/ul in test [2] (MBL 4.278 ug/mL, Table 3); 0.31 U/ul in test [2] (MBL 6.506 ug/mL, Table 3); 0.403 U/ul in test [2] (MBL 7.362 ug/mL, Table 3); 0.435 U/ul in test [2] (MBL 8.995 ug/mL, Table 3). Moreover, the C4 in test [2] (MBL 10.205 ug/mL, Table 3) came out at 0.48 U/ul; in test [2] (MBL 12.718 ug/mL, Table 3) it was 0.552 U/ul; in test [2] (MBL 20 ug/mL, Table 3) it was 0.595 U/ul; in test [2] (MBL 30 ug/mL, Table 3), 0.776 U/ul; in test [2] (MBL 35 ug/mL, Table 3) it was 0.969 U/ul.
Take “MASP-depleted Frac. 3: fraction 3 of purified MASP-depleted MBL from the Example 1 Sephacryl S-300 column, 40 μg/mL”: the C4 stood at 0.107 U/ul in test [2] (MBL 1.02 ug/mL, Table 2); 0.202 U/ul in test [2] (MBL 2.1 ug/mL, Table 2); 0.359 U/ul in test [2] (MBL 2.57 ug/mL, Table 2); 0.568 U/ul in test [2] (MBL 5.65 ug/mL, Table 2); 0.761 U/ul in test [2] (MBL 7.97 ug/mL, Table 2); 0.818 U/ul in test [2] (MBL 10.53 ug/mL, Table 2). The C4 result in test [2] (MBL 12 ug/mL, Table 2) is “xs”; in test [2] (MBL 16 ug/mL, Table 2), “xs”; in test [2] (MBL 20 ug/mL, Table 2), “xs”; in test [2] (MBL 30 ug/mL, Table 2) it was “xs”; in test [2] (MBL 40 ug/mL, Table 2), “xs”.
Take “MASP-depleted Frac. 5: fraction 5 of purified MASP-depleted MBL from the Example 1 Sephacryl S-300 column, 80 μg/mL”: the C4 in test [2] (MBL 1.32 ug/mL, Table 2) is reported as 0.081 U/ul; in test [2] (MBL 2.49 ug/mL, Table 2), 0.137 U/ul; in test [2] (MBL 5.11 ug/mL, Table 2), 0.304 U/ul; in test [2] (MBL 7.83 ug/mL, Table 2), 0.417 U/ul; in test [2] (MBL 8.79 ug/mL, Table 2), 0.465 U/ul; in test [2] (MBL 10 ug/mL, Table 2) it was 0.671 U/ul. Besides, the C4 in test [2] (MBL 12 ug/mL, Table 2) is recorded as 0.716 U/ul; in test [2] (MBL 16 ug/mL, Table 2), 0.805 U/ul; in test [2] (MBL 20 ug/mL, Table 2) it was 0.762 U/ul; in test [2] (MBL 30 ug/mL, Table 2) it was 0.906 U/ul; in test [2] (MBL 40 ug/mL, Table 2), “xs”; in test [2] (MBL 80 ug/mL, Table 2), “xs”.
Take “MASP-depleted Pool 3-7: pool of MASP-depleted MBL fractions 3-7, total protein 85 μg/ml”: the “Complement activation capacity (in words)” value in test [2] is reported as “reached excess”. The C4 in test [2] (MBL 1.124 ug/mL, Table 3) is recorded as 0.043 U/ul; in test [2] (MBL 1.677 ug/mL, Table 3) it was 0.104 U/ul; in test [2] (MBL 3.905 ug/mL, Table 3), 0.25 U/ul; in test [2] (MBL 5.617 ug/mL, Table 3), 0.38 U/ul; in test [2] (MBL 7.151 ug/mL, Table 3), 0.506 U/ul; in test [2] (MBL 7.796 ug/mL, Table 3) it was 0.55 U/ul. Moreover, the C4 in test [2] (MBL 9.377 ug/mL, Table 3) was 0.596 U/ul; in test [2] (MBL 14.045 ug/mL, Table 3), 0.718 U/ul; in test [2] (MBL 20 ug/mL, Table 3) it was 0.825 U/ul; in test [2] (MBL 40 ug/mL, Table 3) it was 0.954 U/ul; in test [2] (MBL 80 ug/mL, Table 3), “xs”; in test [2] (MBL 85 ug/mL, Table 3) it was “xs”.
